Tested on: Alcohol-Preferring (P) rats
Assay: Operant ethanol self-administration in P rats (progressive ratio schedule)
Assay type: in vivo, rat
Settings: for ethanol-motivated responding: P rats on progressive ratio schedule, result in words; for Reduction vs. Vehicle (lever presses) / Mean Number of Lever Presses (Drug-treated): female P rats; for Mean Number of Lever Presses (Drug-treated): 30-min progressive ratio session
Text: Operant Self-Administration in P rats:
Female P rats are obtained and pair-housed from a private colony (Taconic, Germantown, N.Y.). In order to reduce novelty-induced avoidance of ethanol, the water bottle on the homecage is replaced with a bottle containing 15% ethanol in water (v/v, in water) for two days prior to operant training. Throughout the rest of the experiment, rats receive ad libitum access to water and standard laboratory chow, with no further access to ethanol in the homecage.
Rats are trained to press a lever for ethanol reinforcement in daily 30-min sessions conducted in standard rat operant chambers contained within sound-attenuating chambers (MED Associates, Inc., St. Albans, Vt.). The chambers consist of two stainless steel and two clear Plexiglas walls. The floor grid of the operant chambers consists of 0.5 cm diameter stainless steel bars placed approximately 1.5 cm apart. Each operant chamber contains two retractable operant levers located approximately 6 cm above the grid floor and 13 cm apart. A recessed trough is located in the space between the levers, through which a dipper cup (0.1 mL capacity) is raised to deliver response-contingent ethanol (15%, v/v, in water). Upon a reinforced response, a stimulus light is illuminated above the lever on which the response was made throughout the 4-sec dipper cup access. Operation of the stimuli and behavioral responses are controlled and recorded by personal computer for offline analysis (MED Associates, Inc., St. Albans, Vt.).
During operant training, responses on either lever are considered correct responses and are rewarded with 0.1 mL ethanol reinforcement. […] Once stable baseline responding is reached on an FR-1 schedule of reinforcement, the response contingency is increased to FR-2 and then again to FR-3 so that 3 lever presses are required for each reinforcement. […] Specifically, the response requirement is increased as follows: all rats begin each session at an FR-1 schedule of reinforcement; after three reinforcements, the schedule is increased to FR-2; after three reinforcements at that level, the schedule is increased by two to FR-4; after three reinforcements, the schedule is increased by two to FR-6; and so on (see for e.g. Oster S M, Toalston J E, Kuc K A, Pommer T J, Murphy J M, Lumeng L, Bell R L, McBride W J and Rodd Z A (2006) Effects of multiple alcohol deprivations on operant ethanol self-administration by high-alcohol-drinking replicate rat lines. Alcohol 38:155-164). Each session lasts a total of 30 min, after which, all stimuli are turned off and levers are retracted. […] The amount of ethanol consumed is calculated from the number of active lever presses, and converted into g/kg EtOH consumed. Rats receive oral administration of vehicle or test compound in the dose range of 3, 10, or 30 mg/kg (3 mL/kg dose volume, dissolved in a vehicle consisting of 20% Captisol® in 25 mM phosphate buffer at pH=2), or the nonselective opioid receptor antagonist naltrexone (10 mg/kg) as a positive control, 60 min. prior to the session, using a within-subjects, crossover design (3-4 day washout between subsequent doses). On a separate occasion, rats receive oral administration of vehicle or 30 mg/kg test compound (1 mL/kg dose volume, dissolved in a vehicle consisting of 20% Captisol® in 25 mM phosphate buffer), 30 min prior to the session, using a crossover design.

Cc1nn(-c2ncccc2CO)cc1CN1CCC2(CC1)OCC(F)(F)c1cc(Cl)sc12 [Compound 1, [2-[4-[(2-chloro-4,4-difluoro-spiro[5H-thieno[2,3-c]pyran-7,4′-piperidine]-1′-yl)methyl]-3-methyl-pyrazol-1-yl]-3-pyridyl]methanol]
ethanol-motivated responding: reduce ethanol-motivated responding | Reduction vs. Vehicle (lever presses) (3 mg/kg oral): 4.6% | Mean Number of Lever Presses (Drug-treated) (3 mg/kg oral): 412.58 | Reduction vs. Vehicle (lever presses) (10 mg/kg oral): 23.7% | Mean Number of Lever Presses (Drug-treated) (10 mg/kg oral): 330 | Reduction vs. Vehicle (lever presses) (30 mg/kg oral): 55.8% | Mean Number of Lever Presses (Drug-treated) (30 mg/kg oral): 191.25

Cc1nn(-c2ncccc2F)cc1CN1CCC2(CC1)OCC(F)(F)c1cc(Cl)sc12 [Compound 2, 2-Chloro-4,4-difluoro-1′-[[1-(3-fluoro-2-pyridyl)-3-methyl-pyrazol-4-yl]methyl]spiro[5H-thieno[2,3-c]pyran-7,4′-piperidine]]
ethanol-motivated responding: reduce ethanol-motivated responding | Reduction vs. Vehicle (lever presses) (30 mg/kg oral): 61.9% | Mean Number of Lever Presses (Drug-treated) (30 mg/kg oral): 143.31

From patent US9371335B2, “Spirothienopyran-piperidine derivatives as ORL-1 receptor antagonists for their use in the treatment of alcohol dependence and abuse” (Eli Lilly and Company, priority 2011, dated 2016)
